Measurements published in patent US8835476B2, “Synthesis of novel antimicrobials” (priority 2005, dated 2014).
Read-outs that look alike come from different tables or passages of the source.

Experiments:
Assay type in all cases: cell-based
[1] = tested on: S. maltophilia ATCC 13637; assay: Broth microdilution MIC, ATCC strains; conditions: Stenotrophomonas maltophilia, ATCC13637; S. maltophilia ATCC 13637; read-out: MIC (growth inhibition, microdilution method)
Summary of the method: (§1)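 Tested per NCCLS M7-A6 broth microdilution with an inoculum of 5×10^5 CFU/ml and DMSO controls matching solvent levels. Panels were incubated 16 to 20 hours at 35° C. in ambient air, and the MIC was taken as the lowest concentration inhibiting visible growth.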

E. faecalis ATCC 29212 = assay: Broth microdilution MIC, ATCC strains; conditions: Enterococcus faecalis, read-out: MIC (growth inhibition, microdilution method)
Summary of the method: as §1

S. marcescens ATCC 8100 = assay: Broth microdilution MIC, ATCC strains; conditions: Serratia marcescens, ATCC8100; S. marcescens ATCC 8100; read-out: MIC (growth inhibition, microdilution method)
Summary of the method: as §1

[2] = tested on: S. liquefaciens ATCC 27592; assay: Broth microdilution MIC, ATCC strains; conditions: S. liquefaciens ATCC 27592; read-out: MIC (growth inhibition, microdilution method)
Summary of the method: as §1

S. aureus ATCC 29213 = assay: Broth microdilution MIC, ATCC strains; conditions: Staphylococcus aureus, ATCC29213, S. aureus ATCC 29213; read-out: MIC (growth inhibition, microdilution method)
Summary of the method: as §1

[3] = tested on: S. epidermidis ATCC 14990; assay: Broth microdilution MIC, ATCC strains; conditions: Staphylococcus epidermidis, ATCC14990; S. epidermidis ATCC 14990; read-out: MIC (growth inhibition, microdilution method)
Summary of the method: as §1

MRSA ATCC 33591 = assay: Broth microdilution MIC, ATCC strains; conditions: Staphylococcus aureus; MRSA ATCC 33591; read-out: MIC (growth inhibition, microdilution method)
Summary of the method: as §1

S. simulans ATCC 27848 = assay: Broth microdilution MIC, ATCC strains; conditions: Staphylococcus simulans, ATCC27848, read-out: MIC (growth inhibition, microdilution method)
Summary of the method: as §1

K. oxytoca ATCC 49131 = assay: Broth microdilution MIC, ATCC strains; conditions: Klebsiella oxytoca, ATCC49131; K. oxytoca ATCC 49131; read-out: MIC (growth inhibition, microdilution method)
Summary of the method: as §1

K. pneumoniae ATCC 13883 = assay: Broth microdilution MIC, ATCC strains; conditions: Klebsiella pneumoniae, ATCC13883; K. pneumoniae ATCC 13883; read-out: MIC (growth inhibition, microdilution method)
Summary of the method: as §1

[4] = tested on: S. saprophyticus ATCC 15305; assay: Broth microdilution MIC, ATCC strains; conditions: Staphylococcus saprophyticus, ATCC15305; S. saprophyticus ATCC 15305; read-out: MIC (growth inhibition, microdilution method)
Summary of the method: as §1

E. coli ATCC 25922 = assay: Broth microdilution MIC, ATCC strains; conditions: Escherichia coli, ATCC25922, E. coli ATCC 25922; read-out: MIC (growth inhibition, microdilution method)
Summary of the method: as §1

[5] = tested on: S. maltophilia clinical isolates; assay: Broth microdilution MIC, clinical isolate strains (NAUTICA); conditions: Table 4B; each table row is one clinical isolate; unit assumed
Summary of the method: as §1

[6] = tested on: C. freundii clinical isolates; assay: as above; conditions: Table 4B; each table row is one clinical isolate; in µg/mL (unit assumed)
Summary of the method: as §1

[7] = tested on: B. cepacia clinical isolates; assay: as above; conditions: Table 4B; each table row is one clinical isolate; unit assumed
Summary of the method: as §1

[8] = tested on: E. coli clinical isolates; assay: as above; conditions: Table 4B; each table row is one clinical isolate; unit assumed
Summary of the method: as §1

[9] = tested on: E. aerogenes clinical isolates; assay: as above; conditions: Table 4B; each table row is one clinical isolate; unit assumed
Summary of the method: as §1

[10] = tested on: P. retgerri clinical isolates; assay: as above; conditions: Table 4B; each table row is one clinical isolate; unit assumed
Summary of the method: as §1

[11] = tested on: P. stuartii clinical isolates; assay: as above; conditions: Table 4B; each table row is one clinical isolate; unit assumed
Summary of the method: as §1

[12] = tested on: S. liquifaciens clinical isolates; assay: as above; conditions: Table 4B; each table row is one clinical isolate; unit assumed
Summary of the method: as §1

[13] = tested on: C. amalonaticus clinical isolates; assay: as above; conditions: Table 4B; each table row is one clinical isolate; unit assumed
Summary of the method: as §1

[14] = tested on: C. koseril clinical isolates; assay: as above; conditions: Table 4B; each table row is one clinical isolate; unit assumed
Summary of the method: as §1

[15] = tested on: S. marcescens clinical isolates; assay: as above; conditions: Table 4B; each table row is one clinical isolate; unit assumed
Summary of the method: as §1

[16] = tested on: K. pneumoniae clinical isolates; assay: as above; conditions: Table 4B; each table row is one clinical isolate; unit assumed
Summary of the method: as §1

[17] = tested on: A. baumanii clinical isolates; assay: as above; conditions: Table 4B; each table row is one clinical isolate; unit assumed
Summary of the method: as §1

[18] = tested on: P. vulgaris clinical isolates; assay: as above; conditions: Table 4B; each table row is one clinical isolate; unit assumed
Summary of the method: as §1

[19] = tested on: M. morganii clinical isolates; assay: as above; conditions: Table 4B; each table row is one clinical isolate; unit assumed
Summary of the method: as §1

[20] = tested on: P. mirabilis clinical isolates; assay: as above; conditions: Table 4B; each table row is one clinical isolate; unit assumed
Summary of the method: as §1

[21] = tested on: E. cloacae clinical isolates; assay: as above; conditions: Table 4B; each table row is one clinical isolate; unit assumed
Summary of the method: as §1

[22] = tested on: K. oxytoca clinical isolates; assay: as above; conditions: Table 4B; each table row is one clinical isolate; unit assumed
Summary of the method: as §1

P. rettgeri CAP = assay: Broth microdilution MIC, reference strains; conditions: Providencia rettgeri; P. rettgeri (CAP in Table 1); read-out: MIC (growth inhibition, microdilution method)
Summary of the method: as §1

[23] = ATCC29212, E. faecalis ATCC 29212
[24] = ATCC29212, E. faecalis, ATCC number not given

Structure (SMILES)	MIC [1] [mg/L]	MIC (E. faecalis ATCC 29212; [23]) [mg/L]	MIC (E. faecalis ATCC 29212; [24]) [mg/L]	MIC (S. marcescens ATCC 8100) [mg/L]	MIC [2] [mg/L]	MIC (S. aureus ATCC 29213) [mg/L]	MIC [3] [mg/L]	MIC (MRSA ATCC 33591) [mg/L]	MIC (S. simulans ATCC 27848) [mg/L]	MIC (K. oxytoca ATCC 49131) [mg/L]	MIC (K. pneumoniae ATCC 13883) [mg/L]	MIC [4] [mg/L]	MIC (E. coli ATCC 25922) [mg/L]	MIC, S. MALTOPHILIA [5] [mg/L]	MIC, C. FREUNDII [6]	MIC, B. CEPACIA [7] [mg/L]	MIC, E. COLI [8] [mg/L]	MIC, E. AEROGENES [9] [mg/L]	MIC, P. RETTGERI [10] [mg/L]	MIC, P. STUARTII [11] [mg/L]	also measured
Cn1nnnc1-c1cc(-c2ccc(F)cc2)sc1-c1ccc(F)cc1 [DNM-133, 5-(2,5-Bis(4-fluorophenyl)thiophen-3-yl)-1-methyl-1H-tetrazole]	> 16	> 16	> 16	> 16	> 16	> 16	> 16	> 16	> 16	> 16	> 16	> 16	> 16	> 16	>16	> 16	> 16	> 16	> 16	> 16	MIC, S. LIQUEFACIENS [12]: > 16 mg/L; MIC, C. AMALONATICUS [13]: > 16 mg/L; MIC, C. KOSERI [14]: > 16 mg/L; MIC, S. MARCESCENS [15]: > 16 mg/L; MIC, K. PNEUMONIAE [16]: > 16 mg/L; MIC, A. BAUMANII [17]: > 16 mg/L; MIC, P. VULGARIS [18]: > 16 mg/L; MIC, M. MORGANII [19]: > 16 mg/L; MIC, P. MIRABILIS [20]: > 16 mg/L; MIC, E. CLOACAE [21]: > 16 mg/L; MIC, K. OXYTOCA [22]: > 16 mg/L; MIC (P. rettgeri CAP): > 16 mg/L
O=C(O)c1sc(-c2ccc(F)cc2)cc1-c1nnn[nH]1 [DNM-141, 5-(4-Fluoro-phenyl)-3-(1H-tetrazol-5-yl)-thiophene-2-carboxylic acid]	> 16	> 16	> 16	> 16	> 16	> 16	> 16	> 16	> 16	> 16	> 16	> 16	> 16	> 16	>16	> 16	> 16	> 16	> 16	> 16	MIC, S. LIQUEFACIENS [12]: > 16 mg/L; MIC, C. AMALONATICUS [13]: > 16 mg/L; MIC, C. KOSERI [14]: > 16 mg/L; MIC, S. MARCESCENS [15]: > 16 mg/L; MIC, K. PNEUMONIAE [16]: > 16 mg/L; MIC, A. BAUMANII [17]: > 16 mg/L; MIC, P. VULGARIS [18]: > 16 mg/L; MIC, M. MORGANII [19]: > 16 mg/L; MIC, P. MIRABILIS [20]: > 16 mg/L; MIC, E. CLOACAE [21]: > 16 mg/L; MIC, K. OXYTOCA [22]: > 16 mg/L; MIC (P. rettgeri CAP): > 16 mg/L
Cn1nnc(-c2cc(-c3ccc(F)cc3)sc2C(=O)O)n1 [DNM-142, 5-(4-Fluoro-phenyl)-3-(2-methyl-2H-tetrazol-5-yl)-thiophene-2-carboxylic acid]	> 16	> 16	> 16	> 16	> 16	> 16	> 16	> 16	> 16	> 16	> 16	> 16	> 16	> 16	>16	> 16	> 16	> 16	> 16	> 16	MIC, S. LIQUEFACIENS [12]: > 16 mg/L; MIC, C. AMALONATICUS [13]: > 16 mg/L; MIC, C. KOSERI [14]: > 16 mg/L; MIC, S. MARCESCENS [15]: > 16 mg/L; MIC, K. PNEUMONIAE [16]: > 16 mg/L; MIC, A. BAUMANII [17]: > 16 mg/L; MIC, P. VULGARIS [18]: > 16 mg/L; MIC, M. MORGANII [19]: > 16 mg/L; MIC, P. MIRABILIS [20]: > 16 mg/L; MIC, E. CLOACAE [21]: > 16 mg/L; MIC, K. OXYTOCA [22]: > 16 mg/L; MIC (P. rettgeri CAP): > 16 mg/L
Cn1nnnc1-c1cc(-c2ccc(F)cc2)sc1C(=O)O [DNM-143, 5-(4-Fluoro-phenyl)-3-(1-methyl-1H-tetrazol-5-yl)-thiophene-2-carboxylic acid]	> 8	> 8	> 8	> 8	> 8	> 8	> 8	> 8	> 8	> 8	> 8	> 8	> 8	> 8	>8	> 8	> 8	> 8	> 8	> 8	MIC, S. LIQUEFACIENS [12]: > 8 mg/L; MIC, C. AMALONATICUS [13]: > 8 mg/L; MIC, C. KOSERI [14]: > 8 mg/L; MIC, S. MARCESCENS [15]: > 8 mg/L; MIC, K. PNEUMONIAE [16]: > 8 mg/L; MIC, A. BAUMANII [17]: > 8 mg/L; MIC, P. VULGARIS [18]: > 8 mg/L; MIC, M. MORGANII [19]: > 8 mg/L; MIC, P. MIRABILIS [20]: > 8 mg/L; MIC, E. CLOACAE [21]: > 8 mg/L; MIC, K. OXYTOCA [22]: > 8 mg/L; MIC (P. rettgeri CAP): > 8 mg/L
COC(=O)c1sc(-c2ccc(F)cc2)cc1-c1nnn(C)n1 [DNM-144, 5-(4-fluoro-phenyl)-3-(2-methyl-2H-tetrazol-5-yl)-thiophene-2-carboxylic acid methyl ester]	> 8	> 8	> 8	> 8	> 8	> 8	> 8	> 8	> 8	> 8	> 8	> 8	> 8	> 8	>8	> 8	> 8	> 8	> 8	> 8	MIC, S. LIQUEFACIENS [12]: > 8 mg/L; MIC, C. AMALONATICUS [13]: > 8 mg/L; MIC, C. KOSERI [14]: > 8 mg/L; MIC, S. MARCESCENS [15]: > 8 mg/L; MIC, K. PNEUMONIAE [16]: > 8 mg/L; MIC, A. BAUMANII [17]: > 8 mg/L; MIC, P. VULGARIS [18]: > 8 mg/L; MIC, M. MORGANII [19]: > 8 mg/L; MIC, P. MIRABILIS [20]: > 8 mg/L; MIC, E. CLOACAE [21]: > 8 mg/L; MIC, K. OXYTOCA [22]: > 8 mg/L; MIC (P. rettgeri CAP): > 8 mg/L
COC(=O)c1sc(-c2ccc(F)cc2)cc1-c1nnnn1C [DNM-145, 5-(4-Fluoro-phenyl)-3-(1-methyl-1H-tetrazol-5-yl)-thiophene-2-carboxylic acid methyl ester]	> 4	> 4	> 4	> 4	> 4	> 4	> 4	> 4	> 4	> 4	> 4	> 4	> 4	> 4	>4	> 4	> 4	> 4	> 4	> 4	MIC, S. LIQUEFACIENS [12]: > 4 mg/L; MIC, C. AMALONATICUS [13]: > 4 mg/L; MIC, C. KOSERI [14]: > 4 mg/L; MIC, S. MARCESCENS [15]: > 4 mg/L; MIC, K. PNEUMONIAE [16]: > 4 mg/L; MIC, A. BAUMANII [17]: > 4 mg/L; MIC, P. VULGARIS [18]: > 4 mg/L; MIC, M. MORGANII [19]: > 4 mg/L; MIC, P. MIRABILIS [20]: > 4 mg/L; MIC, E. CLOACAE [21]: > 4 mg/L; MIC, K. OXYTOCA [22]: > 4 mg/L; MIC (P. rettgeri CAP): > 4 mg/L
